# Measured values reported in patent EP2121694B1, “CYCLOPROPYL FUSED INDOLOBENZAZEPINE HCV NS5B INHIBITORS” (Bristol-Myers Squibb Company, priority 2007, dated 2008).
# Where two headings read alike, the source gives them in different places.
# Legend:
# [1] = molecular target: T1, HCV NS5B (Hepatitis C virus genotype 1b, UniProt Q9WMX2); test: Modified HCV NS5B RdRp enzyme assay (preincubation protocol); format: biochemical; conditions: HCV NS5B RdRp genotype 1b
# T1 construct: The protein was expressed with an 18 amino acid C-terminal truncation to enhance the solubility; made in house; host or cells: E. coli BL21(DE3), pET21a vector
# Experimental: HCV NS5B RdRp cloning, expression, and purification. The cDNA encoding the NS5B protein of HCV, genotype 1b, was cloned into the pET21a expression vector. The protein was expressed with an 18 amino acid C-terminal truncation to enhance the solubility. The E. coli competent cell line BL21(DE3) was used for expression of the protein. Cultures were grown at 37 °C for ∼ 4 hours until the cultures reached an optical density of 2.0 at 600 nm. The cultures were cooled to 20 °C and induced with 1 mM IPTG. Fresh ampicillin was added to a final concentration of 50 µg/ml and the cells were grown overnight at 20 °C.
# Cell pellets (3L) were lysed for purification to yield 15-24 mgs of purified NS5B. The lysis buffer consisted of 20 mM Tris-HCl, pH 7.4, 500 mM NaCl, 0.5% triton X-100, 1 mM DTT, 1mM EDTA, 20% glycerol, 0.5 mg/ml lysozyme, 10 mM MgCl2, 15 ug/ml deoxyribonuclease I, and Complete TM protease inhibitor tablets (Roche). After addition of the lysis buffer, frozen cell pellets were resuspended using a tissue homogenizer. To reduce the viscosity of the sample, aliquots of the lysate were sonicated on ice using a microtip attached to a Branson sonicator. The sonicated lysate was centrifuged at 100,000 x g for 1hr at 4 °C and filtered through a 0.2 µm filter unit (Corning).
# The protein was purified using three sequential chromatography steps: Heparin sepharose CL-6B, polyU sepharose 4B, and Hitrap SP sepharose (Pharmacia). The chromatography buffers were identical to the lysis buffer but contained no lysozyme, deoxyribonuclease I, MgCl2 or protease inhibitor and the NaCl concentration of the buffer was adjusted according to the requirements for charging the protein onto the column. Each column was eluted with a NaCl gradient which varied in length from 5-50 column volumes depending on the column type. After the final chromatography step, the resulting purity of the enzyme is >90% based on SDS-PAGE analysis. The enzyme was aliquoted and stored at -80 °C.
# Standard HCV NS5B RdRp enzyme assay. HCV RdRp genotype 1b assays were run in a final volume of 60 µl in 96 well plates (Costar 3912). The assay buffer is composed of 20 mM Hepes, pH 7.5, 2.5 mM KCl, 2.5 mM MgCl2, 1 mM DTT, 1.6 U RNAse inhibitor (Promega N2515), 0.1 mg/ml BSA (Promega R3961), and 2 % glycerol. All compounds were serially diluted (3-fold) in DMSO and diluted further in water such that the final concentration of DMSO in the assay was 2%. HCV RdRp genotype 1b enzyme was used at a final concentration of 28 nM. A polyA template was used at 6 nM, and a biotinylated oligo-dT12 primer was used at 180 nM final concentration. Template was obtained commercially (Amersham 27-4110). Biotinylated primer was prepared by Sigma Genosys. 3H-UTP was used at 0.6 µCi (0.29 µM total UTP). Reactions were initiated by the addition of enzyme, incubated at 30 °C for 60 min, and stopped by adding 25 µl of 50 mM EDTA containing SPA beads (4 µg/µl, Amersham RPNQ 0007). Plates were read on a Packard Top Count NXT after >1hr incubation at room temperature.
# Modified HCV NS5B RdRp enzyme assay. A modified enzyme assay was performed essentially as described for the standard enzyme assay except for the following: The biotinylated oligo dT12 primer was precaptured on streptavidin-coated SPA beads by mixing primer and beads in assay buffer and incubating at room temperature for one hour. Unbound primer was removed after centrifugation. The primer-bound beads were resuspended in 20 mM Hepes buffer, pH 7.5 and used in the assay at final concentrations of 20 nM primer and 0.67 µg/µl beads. Order of addition in the assay: enzyme (14 nM) was added to diluted compound followed by the addition of a mixture of template (0.2 nM) , 3H-UTP (0.6 µCi, 0.29 µM), and primer-bound beads, to initiate the reaction; concentrations given are final. Reactions were allowed to proceed for 4 hours at 30° C.
# IC50 values for compounds were determined using seven different [I]. […]
# [2] = system: HCV replicon; test: HCV FRET screening assay in HCV replicon cells; format: cell-based; conditions: Hepatitis C virus
# Excerpt: FRET Assay Preparation. To perform the HCV FRET screening assay, 96-well cell culture plates were used. The FRET peptide (Anaspec, Inc.) (Taliani et al., Anal. Biochem. 1996, 240, 60-67) contains a fluorescence donor, EDANS, near one end of the peptide and an acceptor, DABCYL, near the other end. The fluorescence of the peptide is quenched by […] resonance energy transfer (RET) between the donor and the acceptor, but as the NS3 protease cleaves the peptide the products are released from RET quenching and the fluorescence of the donor becomes apparent. The assay reagent was made as follows: 5X cell Luciferase cell culture lysis reagent from Promega (#E153A) diluted to 1X with dH2O, NaCl added to 150 mM final, the FRET peptide diluted to 20 uM final from a 2 mM stock.
# To prepare plates, HCV replicon cells, with or without a Renilla luciferase reporter gene, were trypsinized and placed into each well of a 96-well plate with titrated test compounds added in columns 3 through 12; columns 1 and 2 contained a control compound (HCV protease inhibitor), and the bottom row contained cells without compound. The plates were then placed in a CO2 incubator at 37 °C.
# Assays. Subsequent to addition of the test compounds described above (FRET Assay Preparation), at various times the plate was removed and Alamar blue solution (Trek Diagnostics, #00-100) was added per well as a measure of cellular toxicity. After reading in a Cytoflour 4000 instrument (PE Biosystems), plates were rinsed with PBS and then used for FRET assay by the addition of 30 ul of the FRET peptide assay reagent described above (FRET Assay Preparation) per well. The plate was then placed into the Cytoflour 4000 instrument which had been set to 340 excite/490 emission, automatic mode for 20 cycles and the plate read in a kinetic mode. Typically, the signal to noise using an endpoint analysis after the reads was at least three-fold. Alternatively, after Alamar blue reading, plates were rinsed with PBS, 50 ul of DMEM (high glucose) without phenol red was added and plates were then used for luciferase assay using the Promega Dual-Glo Luciferase Assay System.
# Compound analysis was determined by quantification of the relative HCV replicon inhibition and the relative cytotoxicity values. To calculate cytoxicity values, the average Alamar Blue fluorescence signals from the control wells were set as 100% non-toxic. The individual signals in each of the compound test wells were then divided by the average control signal and multiplied by 100% to determine […]. To calculate the HCV replicon inhibition values, an average background value was obtained from the two wells containing the highest amount of HCV protease inhibitor at the end of the assay period. These numbers were similar to those obtained from naïve Huh-7 cells.
# The background numbers were then subtracted from the average signal obtained from the control wells and this number was used as 100% activity. The individual signals in each of the compound test wells were then divided by the averaged control values after background subtraction and multiplied by 100% to determine percent activity. EC50 values for a protease inhibitor titration were calculated as the concentration which caused a 50% reduction in FRET or luciferase activity. The two numbers generated for the compound plate, percent cytoxicity and percent activity were used to determine compounds of interest for further analysis.
# [3] = HCV replicon cells, FRET assay, read-out: EC50
# T1 sequence (Q9WMX2 2420-2992): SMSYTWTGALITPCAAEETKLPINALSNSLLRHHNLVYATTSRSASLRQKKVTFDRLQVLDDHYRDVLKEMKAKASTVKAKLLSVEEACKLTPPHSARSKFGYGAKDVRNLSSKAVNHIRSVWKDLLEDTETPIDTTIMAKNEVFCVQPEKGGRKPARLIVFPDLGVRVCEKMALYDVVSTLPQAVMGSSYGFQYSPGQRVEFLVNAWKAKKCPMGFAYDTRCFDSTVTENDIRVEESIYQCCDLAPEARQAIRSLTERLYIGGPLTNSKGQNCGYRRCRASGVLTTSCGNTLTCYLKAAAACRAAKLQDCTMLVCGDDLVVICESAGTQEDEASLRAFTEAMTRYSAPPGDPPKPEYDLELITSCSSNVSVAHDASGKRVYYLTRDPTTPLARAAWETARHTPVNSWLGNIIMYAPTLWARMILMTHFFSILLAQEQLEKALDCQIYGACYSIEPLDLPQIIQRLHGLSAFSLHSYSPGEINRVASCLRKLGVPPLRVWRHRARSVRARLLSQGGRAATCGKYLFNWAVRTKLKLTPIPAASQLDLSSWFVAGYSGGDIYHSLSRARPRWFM
SMILES,IC50 [1] [nM],"EC50 [2, 3] [nM]",EC50 [2] [nM]
COc1ccc2c(c1)C1CC1(C(=O)N1C[C@@H](C)O[C@@H](C)C1)Cn1c-2c(C2CCCCC2)c2ccc(C(=O)NS(=O)(=O)C3CC3)cc21 (stereo partly drawn),97 to 1000,97 to 1000,
COc1cccc2c1C1CC1(C(=O)N1C[C@@H](C)O[C@@H](C)C1)Cn1c-2c(C2CCCCC2)c2ccc(C(=O)NS(=O)(=O)N(C)C)cc21 (stereo partly drawn),97 to 1000,97 to 1000,
COC(=O)C12CC1c1cc(O)ccc1-c1c(C3CCCCC3)c3ccc(C(=O)OC(C)(C)C)cc3n1C2 (stereo not drawn),1000 to 10000,> 1000,
COC(=O)c1ccc2c(C3CCCCC3)c3n(c2c1)CC1(C(=O)O)CC1c1c(OC(F)(F)F)cccc1-3 (stereo not drawn),1000 to 10000,,
COc1ccc2c(c1)C1CC1(C(=O)N1CC[C@@H](N(C)C)C1)Cn1c-2c(C2CCCCC2)c2ccc(C(=O)NS(=O)(=O)N(C)C)cc21 (stereo partly drawn),97 to 1000,97 to 1000,
COC(=O)c1ccc2c(C3CCCCC3)c3n(c2c1)CC1(C(=O)OC)CC1c1c(OC(F)(F)F)cccc1-3 (stereo not drawn),> 10000,> 120,
COc1ccc2c(c1)C1CC1(C(=O)N1CCCN(C)CC1)Cn1c-2c(C2CCCCC2)c2ccc(C(=O)NS(=O)(=O)N3CCC3)cc21 (stereo not drawn),97 to 1000,,
COc1ccc2c(c1)C1CC1(C(=O)N1CCCN(C)CC1)Cn1c-2c(C2CCCCC2)c2ccc(C(=O)NS(=O)(=O)N(C)C)cc21 (stereo not drawn) [drawing 65],97 to 1000,,
COC(=O)c1ccc2c(C3CCCCC3)c3n(c2c1)CC1(C(=O)N2CC(C)OC(C)C2)CC1c1c(OC(F)(F)F)cccc1-3 (stereo not drawn),1000 to 10000,,
CCC(CC)N1CCN(C(=O)C23CC2c2cc(OC)ccc2-c2c(C4CCCCC4)c4ccc(C(=O)NS(=O)(=O)N(C)C)cc4n2C3)CC1 (stereo not drawn) [drawing 37],97 to 1000,,
COc1ccc2c(c1)C1CC1(C(=O)N1CC(C)OC(C)C1)Cn1c-2c(C2CCCCC2)c2ccc(C(=O)NS(C)(=O)=O)cc21 (stereo not drawn),97 to 1000,,97 to 1000
COc1ccc2c(c1)C1CC1(C(=O)O)Cn1c-2c(C2CCCCC2)c2ccc(C(=O)NS(N)(=O)=O)cc21 (stereo not drawn),97 to 1000,,
COc1ccc2c(c1)C1CC1(C(=O)N1CC[C@H](N(C)C)C1)Cn1c-2c(C2CCCCC2)c2ccc(C(=O)NS(=O)(=O)C3CC3)cc21 (stereo partly drawn),97 to 1000,97 to 1000,
COc1ccc2c(c1)[C@H]1C[C@@]1(C(=O)O)Cn1c-2c(C2CCCCC2)c2ccc(C(=O)NS(=O)(=O)N(C)C)cc21,97 to 1000,,1000 to 10000
COc1ccc2c(c1)C1CC1(C(=O)N1CCC(C)(O)CC1)Cn1c-2c(C2CCCCC2)c2ccc(C(=O)NS(=O)(=O)N3CCC3)cc21 (stereo not drawn),97 to 1000,97 to 1000,
